According to patent US11957683B2, “Bicyclic compounds” (Aligos Therapeutics, Inc., priority 2021, dated 2024):
Read-outs that look alike come from different tables or passages of the source.

How the values were obtained:
HBV = assay: HBV-DNA antiviral assay using HepG2.117 cells; type: cell-based, HBV genotype D; conditions: Hepatitis B virus
Description: (§1) The following assay procedure describes the HBV antiviral assay, using HepG2.117 cells, which carry a stably integrated genotype D HBV genome under the control of a Tet-off promoter, and intracellular HBV DNA quantification as endpoint. Cell viability is assessed in parallel by measuring the intracellular ATP content using CellTiter-Glo 2.0 (Promega).
On day 0, HepG2.117 cells (which are maintained in routine cell culture with doxycycline present in the medium at a final concentration of 1 μg/mL) are seeded in 96-well plates (white with clear bottom) at a density of 2.0×10^4 cells/well (0.1 mL/well) in medium without doxycycline to induce pgRNA transcription and subsequent formation of HBV particles. The cells are incubated at 37° C. and 5% CO2.
(§2) On day 1, medium is removed from each well, the test articles are diluted in culture medium without doxcycyline and 100 μL was added to cell culture wells (9 concentrations, 4-fold dilution). For each plate, 6 untreated (merely DMSO) wells are included. The final concentration of DMSO in the culture medium is 2%. Each plate is prepared in duplicate (one for HBV DNA extraction, one for CellTiter-Glo 2.0 measurement). The cells are incubated at 37° C. and 5% CO2 for 3 days.
(§3) On day 4, cell viability is assessed using CellTiter-Glo 2.0 and cell lysates are prepared for HBV DNA extraction and subsequent quantification by qPCR.
Medium is removed from each well and 100 μL of 0.33% NP-40 in H2O was added to each well. Plates are sealed, incubated at 4° C. for 5 mins, vortexed extensively and centrifuged briefly. Next, 35 μL of lysate is added to 65 μL QuickExtract DNA Extraction Solution (Epicentre) in a PCR plate for each well. PCR plate is incubated at 65° C. for 6 mins, 98° C. for 2 mins and finally cooled to 4° C. HBV DNA is then quantified by qPCR with HBV-specific primers and probes as specified in Table 2 using the Bio-Rad SSOAdvanced Universal Probes Supermix on a CFX96 machine (Bio-Rad). The PCR cycle program consisted of 95° C. for 3 mins, followed by 40 cycles at 95° C. for 10 sec and 60° C. for 30 sec.
A DNA standard is prepared by dilution of an IDT gBlock corresponding to the amplicon with concentrations ranging from 10^2 to 10^8 copies/input (i.e., per 4 μL) and used to generate a standard curve by plotting Cq values vs. HBV DNA standard concentration. The quantity of HBV DNA in each sample is determined by interpolating from the standard curve.
(§4) Cell viability is calculated as follows: % Cell viability=(luminescence value of test sample)/(average luminescence value of 2% DMSO control)×100%. HBV DNA inhibition was calculated as follows: 100−(HBV DNA copy number of test sample)/(average HBV DNA copy number of 2% DMSO control)×100%. No normalization to entecavir is required due to the excellent dynamic window of this assay. The CC50, EC50 and EC90 values were determined by dose-response curves fitted using non-linear regression.

[1] = Cell viability by CellTiter-Glo 2.0 (intracellular ATP) in HepG2.117 cells; type: cell-based; conditions: human, CellTiter-Glo 2.0, HepG2.117 cells, 3 days incubation
Description: as §1, §2, §3
Using the other plates, the cell viability is quantified by CellTiter-Glo 2.0 according to the manufacturer's manual. In brief, 100 μL of reagent solution is added to the culture plates and shaken for 2′. The plates are incubated at rt for 10 min and luminescence signal is subsequently measured on a VarioSkan Lux (ThermoFisher) plate reader.
as §4

[2] = 72 h, HBV DNA inhibition, intracellular HBV DNA by qPCR, HepG2.117 cells, 3 days incubation, read-out: EC50

Compound: C=C[C@H](C)Nc1nc2c(c(=O)n1-c1ccc(C(=O)NC)cn1)C[C@@H](C)N(C(=O)c1ccc(Br)c(C(F)(F)F)c1)C2 [Compound 24, 6-((R)-7-(4-bromo-3-(trifluoromethyl)benzoyl)-2-(((S)-but-3-en-2-yl)amino)-6-methyl-4-oxo-5,6,7,8-tetrahydropyrido[3,4-d]pyrimidin-3(4H)-yl)-N-methylnicotinamide]
- EC50 (HBV; [2]): < 0.05 µM
- CC50 at 3 days [1]: > 0.5 µM

Compound: C=C[C@H](C)Nc1nc2c(c(=O)n1-c1ccc3c(c1)ncn3C)C[C@@H](C)N(C(=O)c1ccc(Br)c(C(F)(F)F)c1)C2 [Compound 17, (R)-7-(4-bromo-3-(trifluoromethyl)benzoyl)-2-(((S)-but-3-en-2-yl)amino)-6-methyl-3-(1-methyl-1H-benzo[d]imidazol-5-yl)-5,6,7,8-tetrahydropyrido[3,4-d]pyrimidin-4(3H)-one]
- EC50 (HBV; [2]): < 0.05 µM
- CC50 at 3 days [1]: > 0.5 µM

Compound: C=CC(COC)Nc1nc2c(c(=O)n1-c1ccc(C(=O)NC)cc1)C[C@@H](C)N(C(=O)c1ccc(Br)c(C(F)(F)F)c1)C2 (stereo partly shown) [Compound 16]
- EC50 (HBV; [2]): < 0.05 µM
- CC50 at 3 days [1]: > 0.5 µM

Compound: CNC(=O)c1ccc(-n2c(C#CC(C)(C)N)nc3c(c2=O)C[C@@H](C)N(C(=O)c2ccc(Br)c(C(F)(F)F)c2)C3)cc1 [Compound 14, (R)-4-(2-(3-amino-3-methylbut-1-yn-1-yl)-7-(4-bromo-3-(trifluoromethyl)benzoyl)-6-methyl-4-oxo-5,6,7,8-tetrahydropyrido[3,4-d]pyrimidin-3(4H)-yl)-N-methylbenzamide]
- EC50 (HBV; [2]): 0.05 to 0.5 µM
- CC50 at 3 days [1]: > 0.5 µM

Compound: C=C[C@H](C)Nc1nc2c(c(=O)n1-c1ccc3c(c1)ncn3CC(F)(F)F)C[C@@H](C)N(C(=O)c1ccc(Br)c(C(F)(F)F)c1)C2 [Compound 35, (6R)-7-[4-bromo-3-(trifluoromethyl)benzoyl]-6-methyl-2-[[(1S)-1-methylallyl]amino]-3-[1-(2,2,2-trifluoroethyl)benzimidazol-5-yl]-6,8-dihydro-5H-pyrido[3,4-d]pyrimidin-4-one]
- EC50 (HBV; [2]): < 0.05 µM
- CC50 at 3 days [1]: 28.5 µM

Compound: C=C[C@@H](C)Nc1nc2c(c(=O)n1-c1ccc3c(c1)ncn3C)C[C@@H](C)N(C(=O)c1ccc(Br)c(C(F)(F)F)c1)C2 [Compound 18, (R)-7-(4-bromo-3-(trifluoromethyl)benzoyl)-2-(((R)-but-3-en-2-yl)amino)-6-methyl-3-(1-methyl-1H-benzo[d]imidazol-5-yl)-5,6,7,8-tetrahydropyrido[3,4-d]pyrimidin-4(3H)-one]
- EC50 (HBV; [2]): < 0.05 µM
- CC50 at 3 days [1]: > 0.5 µM

Compound: C=C[C@H](C)Nc1nc2c(c(=O)n1-c1ccc(C(=O)NC)nc1)C[C@@H](C)N(C(=O)c1ccc(Br)c(C(F)(F)F)c1)C2 [Compound 41, 5-[(6R)-7-[4-bromo-3-(trifluoromethyl)benzoyl]-6-methyl-2-[[(1S)-1-methylallyl]amino]-4-oxo-6,8-dihydro-5H-pyrido[3,4-d]pyrimidin-3-yl]-N-methyl-pyridine-2-carboxamide]
- EC50 (HBV; [2]): < 0.05 µM
- CC50 at 3 days [1]: > 50 µM

Compound: C=C[C@H](C)Nc1nc2c(c(=O)n1-c1cc3ncn(C)c3cc1F)C[C@@H](C)N(C(=O)c1ccc(Br)c(C(F)(F)F)c1)C2 [Compound 32a, (R)-7-(4-bromo-3-(trifluoromethyl)benzoyl)-2-(((S)-but-3-en-2-yl)amino)-3-(6-fluoro-1-methyl-1H-benzo[d]imidazol-5-yl)-6-methyl-5,6,7,8-tetrahydropyrido[3,4-d]pyrimidin-4(3H)-one]
- EC50 (HBV; [2]): < 0.05 µM
- CC50 at 3 days [1]: 29.5 µM

Compound: C=C[C@H](C)Nc1nc2c(c(=O)n1-c1cnc3c(c1)ncn3C)C[C@@H](C)N(C(=O)c1ccc(Br)c(C(F)(F)F)c1)C2 [Compound 26, (R)-7-(4-bromo-3-(trifluoromethyl)benzoyl)-2-(((S)-but-3-en-2-yl)amino)-6-methyl-3-(3-methyl-3H-imidazo[4,5-b]pyridin-6-yl)-5,6,7,8-tetrahydropyrido[3,4-d]pyrimidin-4(3H)-one]
- EC50 (HBV; [2]): < 0.05 µM
- CC50 at 3 days [1]: > 0.5 µM

Compound: C=C[C@H](C)Nc1nc2c(c(=O)n1-c1ccc(-c3nnc(C)[nH]3)cc1)C[C@@H](C)N(C(=O)c1ccc(Br)c(C(F)(F)F)c1)C2 [Compound 4a, (R)-7-(4-bromo-3-(trifluoromethyl)benzoyl)-2-(((S)-but-3-en-2-yl)amino)-6-methyl-3-(4-(5-methyl-4H-1,2,4-triazol-3-yl)phenyl)-5,6,7,8-tetrahydropyrido[3,4-d]pyrimidin-4(3H)-one]
- EC50 (HBV; HepG2.117, 72 h): < 0.05 µM
- CC50 at 3 days [1]: > 0.5 µM

Compound: C=C[C@H](C)Nc1nc2c(c(=O)n1-c1ccc(OCC(C)O)cc1)C[C@@H](C)N(C(=O)c1ccc(Br)c(C(F)(F)F)c1)C2 (stereo in doubt) [Compound 31, (R)-7-(4-bromo-3-(trifluoromethyl)benzoyl)-2-(((S)-but-3-en-2-yl)amino)-3-(4-((S)-2-hydroxypropoxy)phenyl)-6-methyl-5,6,7,8-tetrahydropyrido[3,4-d]pyrimidin-4(3H)-one]
- EC50 (HBV; [2]): < 0.05 µM
- CC50 at 3 days [1]: 29.6 µM

Compound: C#Cc1ccc(C(=O)N2Cc3nc(N[C@@H](C)C=C)n(-c4ccc(C(=O)NC)cc4)c(=O)c3C[C@H]2C)cc1C(F)(F)F [Compound 50, 4-[(6R)-7-[4-ethynyl-3-(trifluoromethyl)benzoyl]-6-methyl-2-[[(1S)-1-methylallyl]amino]-4-oxo-6,8-dihydro-5H-pyrido[3,4-d]pyrimidin-3-yl]-N-methyl-benzamide]
- EC50 (HBV; [2]): < 0.05 µM
- CC50 at 3 days [1]: > 50 µM

Compound: C=C[C@@H](C)Nc1nc2c(c(=O)n1-c1ccc(C(=O)NC)c(Cl)c1)C[C@@H](C)N(C(=O)c1ccc(Br)c(C(F)(F)F)c1)C2 [Compound 19, 4-((R)-7-(4-bromo-3-(trifluoromethyl)benzoyl)-2-(((R)-but-3-en-2-yl)amino)-6-methyl-4-oxo-5,6,7,8-tetrahydropyrido[3,4-d]pyrimidin-3(4H)-yl)-2-chloro-N-methylbenzamide]
- EC50 (HBV; [2]): < 0.05 µM
- CC50 at 3 days [1]: > 0.5 µM

Compound: C=CC(C)(C)Nc1nc2c(c(=O)n1-c1ccc(C(=O)NC)cc1)C[C@@H](C)N(C(=O)c1ccc(Br)c(C(F)(F)F)c1)C2 [Compound 1, (R)-4-(7-(4-bromo-3-(trifluoromethyl)benzoyl)-6-methyl-2-((2-methylbut-3-en-2-yl)amino)-4-oxo-5,6,7,8-tetrahydropyrido[3,4-d]pyrimidin-3(4H)-yl)-N-methylbenzamide]
- EC50 (HBV; [2]): < 0.05 µM
- CC50 at 3 days [1]: > 0.5 µM

Compound: C=C[C@H](C)Nc1nc2c(c(=O)n1-c1ccc3c(c1)nnn3C)C[C@@H](C)N(C(=O)c1ccc(Br)c(C(F)(F)F)c1)C2 [Compound 13, (R)-7-(4-bromo-3-(trifluoromethyl)benzoyl)-2-(((S)-but-3-en-2-yl)amino)-6-methyl-3-(1-methyl-1H-benzo[d][1,2,3]triazol-5-yl)-5,6,7,8-tetrahydropyrido[3,4-d]pyrimidin-4(3H)-one]
- EC50 (HBV; [2]): < 0.05 µM
- CC50 at 3 days [1]: 48 µM

Compound: C=CC(C)(C)Nc1nc2c(c(=O)n1-c1ccc3c(c1)ncn3C)C[C@@H](C)N(C(=O)c1ccc(Br)c(C(F)(F)F)c1)C2 [Compound 29, (R)-7-(4-bromo-3-(trifluoromethyl)benzoyl)-6-methyl-3-(1-methyl-1H-benzo[d]imidazol-5-yl)-2-((2-methylbut-3-en-2-yl)amino)-5,6,7,8-tetrahydropyrido[3,4-d]pyrimidin-4(3H)-one]
- EC50 (HBV; [2]): < 0.05 µM
- CC50 at 3 days [1]: 30.5 µM

Compound: C=C[C@H](C)Nc1nc2c(c(=O)n1-c1cc(F)c3ncn(C)c3c1)C[C@@H](C)N(C(=O)c1ccc(Br)c(C(F)(F)F)c1)C2 [Compound 49, (6R)-7-[4-bromo-3-(trifluoromethyl)benzoyl]-3-(7-fluoro-3-methyl-benzimidazol-5-yl)-6-methyl-2-[[(1S)-1-methylallyl]amino]-6,8-dihydro-5H-pyrido[3,4-d]pyrimidin-4-one]
- EC50 (HBV; [2]): < 0.05 µM
- CC50 at 3 days [1]: 23 µM
